Measured values published in ChEMBL document CHEMBL2073988, “Secretory transport of methylprednisolone possibly mediated by P-glycoprotein in Caco-2 cells” (Biol Pharm Bull, 2002).

Molecular target: ATP-dependent translocase ABCB1 (Homo sapiens, UniProt P08183)
Test: TP_TRANSPORTER: transepithelial transport (basal to apical), inhibited by Verapamil in Caco-2 cells
Type: functional, cell-based

Sequence of ATP-dependent translocase ABCB1 (P08183 whole entry): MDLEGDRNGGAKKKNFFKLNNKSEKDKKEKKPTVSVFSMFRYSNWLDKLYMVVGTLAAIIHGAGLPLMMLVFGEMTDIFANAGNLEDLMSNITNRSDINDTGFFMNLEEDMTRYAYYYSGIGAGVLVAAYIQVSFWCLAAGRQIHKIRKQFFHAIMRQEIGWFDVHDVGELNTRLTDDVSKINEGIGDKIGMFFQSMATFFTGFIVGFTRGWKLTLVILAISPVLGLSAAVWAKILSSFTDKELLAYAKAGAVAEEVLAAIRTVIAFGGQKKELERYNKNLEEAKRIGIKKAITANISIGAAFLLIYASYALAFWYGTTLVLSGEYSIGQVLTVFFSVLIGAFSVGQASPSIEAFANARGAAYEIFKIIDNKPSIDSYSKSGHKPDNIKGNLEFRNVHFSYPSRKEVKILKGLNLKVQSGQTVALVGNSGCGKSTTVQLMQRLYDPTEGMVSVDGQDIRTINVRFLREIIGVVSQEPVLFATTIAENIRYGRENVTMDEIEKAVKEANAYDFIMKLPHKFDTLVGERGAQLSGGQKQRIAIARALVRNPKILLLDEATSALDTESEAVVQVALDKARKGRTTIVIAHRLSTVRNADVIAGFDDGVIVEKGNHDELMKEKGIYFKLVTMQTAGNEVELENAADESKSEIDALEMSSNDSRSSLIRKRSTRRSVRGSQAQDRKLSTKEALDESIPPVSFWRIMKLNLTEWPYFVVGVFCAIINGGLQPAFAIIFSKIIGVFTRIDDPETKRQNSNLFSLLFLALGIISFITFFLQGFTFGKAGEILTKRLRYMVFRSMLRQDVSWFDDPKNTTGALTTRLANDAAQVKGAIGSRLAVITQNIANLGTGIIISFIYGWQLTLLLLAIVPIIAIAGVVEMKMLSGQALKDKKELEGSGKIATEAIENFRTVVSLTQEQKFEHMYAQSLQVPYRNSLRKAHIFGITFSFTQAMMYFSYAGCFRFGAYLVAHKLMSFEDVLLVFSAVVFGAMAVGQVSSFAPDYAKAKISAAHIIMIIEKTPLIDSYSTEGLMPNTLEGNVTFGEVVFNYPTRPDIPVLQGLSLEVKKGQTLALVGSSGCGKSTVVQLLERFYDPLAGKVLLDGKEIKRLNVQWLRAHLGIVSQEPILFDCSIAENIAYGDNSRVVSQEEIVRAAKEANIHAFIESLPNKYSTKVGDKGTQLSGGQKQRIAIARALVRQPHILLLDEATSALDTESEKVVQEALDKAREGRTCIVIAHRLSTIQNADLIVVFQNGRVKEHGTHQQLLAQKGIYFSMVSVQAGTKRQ

Activity: substrate [+]
Compound: C[C@H]1C[C@@H]2[C@H]([C@@H](O)C[C@@]3(C)[C@H]2CC[C@]3(O)C(=O)CO)[C@@]2(C)C=CC(=O)C=C12 [METHYLPREDNISOLONE]
